US5567716A, “Trans and cis traumatic acid salts having cicatrizant activity associated to bacteriostatic, antiviral, antibiotic or antifungal activity” (priority 1992, dated 1996)

How the values were obtained:
E. Coli ATCC.35218 = experiment: Antibacterial activity, diffusion method in agar-germs (2.a); format: cell-based
Protocol: (§1) In a Tryprone Soy Agar diffusion medium ATCC (American Type Culture Collection) standard bacterial strains are inoculated, preparing a final solution of 10^6 cfu/g (colony forming unities) of the following strains:
(§2) Every plate contains 20 ml of a medium where 2 equidistant wells having a standard diameter are Formed and in each of these wells […] of the above described bacterial solution are inoculated. 2 plates are prepared for every couple of compounds to be tested at different concentrations, and For every strain, and each of these plates is compared with a white (sterile demineralized water inoculum). After the inoculum, the plates are placed in the refrigerator to favour diffusion and temporaneously blocking bacterial growth.
(§3) The compounds hexadecyltrimethylammonium traumatate and benzyldimethylhexadecylammonium traumatare respectively versus hexadecyl trimethylammonium bromide and benzyldimethylhexadecylammonium chloride are solubilized in demineralized water to Form solutions at the concentrations: 0.1; 0.5; and 1%.
(§4) The antibacterial effect is evaluated by measuring bacterial diffusion halo around the well vs white (halo absence).

PS Maltophila ATCC.13637 = experiment: as above; format: cell-based
Protocol: as §1, §2, §3, §4

[1] = tested on: Pseudomonas Aeruginosa ATCC.35422; experiment: as above; format: cell-based
Protocol: as §1, §2, §3, §4

[2] = tested on: Aspergillus Niger ATCC 16404; experiment: as above; format: cell-based; design: unit not given here
Protocol: as §1, §2, §3, §4

[3] = tested on: Candida Albicans ATCC.10231; experiment: as above; format: cell-based; design: unit not given here
Protocol: as §1, §2, §3, §4

PS Cepacia ATCC.25416 = experiment: as above; format: cell-based; design: unit not given here
Protocol: as §1, §2, §3, §4

[4] = tested on: Stafilococcus Aureus ATCC.65380; experiment: as above; format: cell-based; design: unit not given here
Protocol: as §1, §2, §3, §4

[5] = tested on: Stafilococcus Epidermidis ATCC.14990; experiment: as above; format: cell-based; design: unit not given here
Protocol: as §1, §2, §3, §4

[6] = tested on: Streptococcus Fecalis ATCC.291212; experiment: as above; format: cell-based; design: unit not given here
Protocol: as §1, §2, §3, §4

[7] = tested on: standard bacterial strains; experiment: Antibacterial activity, diffusion method in agar-germs, all strains (2.a); format: cell-based; conditions: versus hexadecyltrimethylammonium bromide and benzyldimethylhexadecylammonium chloride; in words
Protocol: as §1, §2, §3, §4

B.subtilis ATCC 6633 = experiment: Evaluation of bacteriostatic minimal concentration (BMC); format: cell-based; conditions: Table 2.b)5; test concentrations given in μg/ml
Protocol: (§5) 1. Culture Medium: Tryprone Soy Broth (TBS) - Biogenetics
(§6) Microbic standard strains from American Type Culture Collection (ATCC) were used, chosen among aerobic Gram positive and negative as follows:
(§7) The broths culture of the different species are prepared growing the standard strain (kept in Tryptic Soy Agar (TSA) slent at 5° C.) in Tryptone Soy Broth (TSB) for 12 hours at 37° C. 10 ml are then taken up from each culture, centrifugated for 3 times at 3500 PM washing each time the sediment using 10 ml of sterile saline solution. The sediment is resuspended in the saline solution until obtainment of a turbidity corresponding to the Mc Farland standard solution (the suspension title must be […] UFC/ml).
(§8) The compounds, dissolved as stock solution, were added to test tubes containing 5 ml TBS in order to obtain the desired Final concentration 10000; 5000; 1000; 200; 40; 2; 0.4; 0.05 μg/ml (culture medium maximal dilution=1/10).
(§9) 50 μl of bacterial suspension are added to the tube containing the compounds to be tested and incubated at 37° C.: the densitometric determination is made in comparison with Mc Farland standard solution 24 and 48 hours later.
(§10) After the incubation time the suspensions ape gently agitated; 50 μl of each suspension are inoculated in tubes containing […] of TSB and incubated at 37° C.; the densitometric determination is made 48 hours later.
(§11) BMC is defined by comparison between the two densitometric evaluation.

C.albicans ATCC 10231 = experiment: as above; format: cell-based; conditions: Table 2.b)6; test concentrations given in μg/ml
Protocol: as §5, §6, §7, §8, §9, §10, §11

Ps.aeruginosa ATCC 35422 = experiment: as above; format: cell-based; conditions: Table 2.b)1; test concentrations given in μg/ml
Protocol: as §5, §6, §7, §8, §9, §10, §11

St.aureus ATCC 65380 = experiment: as above; format: cell-based; conditions: Table 2.b)2; test concentrations given in μg/ml
Protocol: as §5, §6, §7, §8, §9, §10, §11

[8] = tested on: St.epidermidis ATCC 14990; experiment: as above; format: cell-based; conditions: Table 2.b)4; test concentrations given in μg/ml
Protocol: as §5, §6, §7, §8, §9, §10, §11

E.coli ATCC 35218 = experiment: microbe, parasite or virus in culture; format: cell-based; conditions: Table 2.b)3; test concentrations given in μg/ml
Protocol: as §5, §6, §7, §8, §9, §10, §11

[9] = Physical chemical characteristics: solubility in water and organic solvents
fibroblast cells L929 = experiment: Cell growth of fibroblast L929 culture, crystal violet colorimetry (1.2); conditions: in words
Protocol: Mice fibroblast cells L929, clone derived from connective tissue, are suspended in Eagle's MEM with penicillin (100U/ml)--streptomycin (0.1 mg/ml), seeded in culture dishes (10000cells/dish) and cultured overnight. After 24 hours the culture medium was decantated and the tested compounds are added. The cellular density is measured after 4 (t0) and 24 (t1) hours of incubation at 37° C. in 5% CO2 air by colorimetry using crystal violet (exposure for 15 minutes, room temperature; absorbance 570 nm).
The cells number is measured at 4 (t0) and 24 (t1) hours from the seeding. The cell growth is evaluated at t1/t0 rate (%).

3T3 fibroblasts = experiment: Cellular proliferation of 3T3 fibroblasts, neutral red colorimetry (1.1a); format: cell-based, Mice
Protocol: Experiments on 3T3 fibroblasts
Mice 3T3 fibroblasts cultures sown at a 40.000/ml concentration on plates having 6 wells in a DMEM culture medium enriched with 10% calf serum are used. After 24 hours culture, the 90 prepared wells are divided in order to allow the analyses of the compounds of the invention, every compound to be tested being used respectively at a concentration of 0.1, 1 and 10 μg/ml by subsequent evaluations after 48 and 72 hours of incubation.
Hexadecyltrimethylammoniun (ETA) traumatare: solubilized in water and brought to the desired final concentrations of 0.1. 1 and 10 μg/ml by progressive dilutions;
Ethanolamine traumatate: solubilized in water and brought to the final concentrations of 0.1, 1 and 10 μg/ml by progressive dilutions;
Traumatic acid: neutralized with sodium hydroxyde and solubilized in water, then brought to the final concentrations of 0.1, 1 and 10 μg/ml by progressive dilutions with the culture medium.
The compounds are added to the cells after 24 hours culture. The cells number is measured by colorimetry with the neutral red intravital stain after 24, 48, 72 hours of incubation.

benzylmethylhexadecylammonium trans-traumatate
bacterial diffusion halo (E. Coli ATCC.35218; sol. 0.1%): n.h. | bacterial diffusion halo (E. Coli ATCC.35218; sol. 0.5%): n.h. | bacterial diffusion halo (E. Coli ATCC.35218; sol. 1%): 13 | bacterial diffusion halo (PS Maltophila ATCC.13637; sol. 0.1%): n.h. | bacterial diffusion halo (PS Maltophila ATCC.13637; sol. 0.5%): n.h. | bacterial diffusion halo (PS Maltophila ATCC.13637; sol. 1%): 15 | bacterial diffusion halo ([1]; sol. 0.1%): n.h. | bacterial diffusion halo ([1]; sol. 0.5%): 12 | bacterial diffusion halo ([1]; sol. 1%): 14 | bacterial diffusion halo ([2]; sol. 0.1%): 12 | bacterial diffusion halo ([2]; sol. 0.5%): 16 | bacterial diffusion halo ([2]; sol. 1%): 19 | bacterial diffusion halo ([3]; sol. 0.1%): 13 | bacterial diffusion halo ([3]; sol. 0.5%): 15 | bacterial diffusion halo ([3]; sol. 1%): 16 | bacterial diffusion halo (PS Cepacia ATCC.25416; sol. 0.1%): 12 | bacterial diffusion halo (PS Cepacia ATCC.25416; sol. 0.5%): 15 | bacterial diffusion halo (PS Cepacia ATCC.25416; sol. 1%): 15 | bacterial diffusion halo ([4]; sol. 0.1%): 17 | bacterial diffusion halo ([4]; sol. 0.5%): 22 | bacterial diffusion halo ([4]; sol. 1%): 22 | bacterial diffusion halo ([5]; sol. 0.1%): 15 | bacterial diffusion halo ([5]; sol. 0.5%): 17 | bacterial diffusion halo ([5]; sol. 1%): 19 | bacterial diffusion halo ([6]; sol. 0.1%): 12 | bacterial diffusion halo ([6]; sol. 0.5%): 14 | bacterial diffusion halo ([6]; sol. 1%): 15 | antibacterial and bacteriostatic activity profile [7]: antibacterial and bacteriostatic activity profile comparable to that of the comparison products | MINIMAL BACTERIAL CONCENTRATION (B.subtilis ATCC 6633): 1,000.00 | MINIMAL BACTERIAL CONCENTRATION (C.albicans ATCC 10231): 2.00 | MINIMAL BACTERIAL CONCENTRATION (Ps.aeruginosa ATCC 35422): 10,000.00 | MINIMAL BACTERIAL CONCENTRATION (St.aureus ATCC 65380): 1,000.00 | MINIMAL BACTERIAL CONCENTRATION [8]: 2.00 | MINIMAL BACTERIAL CONCENTRATION (E.coli ATCC 35218): 200.00 | organic solvent solubility ([9]; in ethanol): > 20 mg/mL | solubility in water ([9]; water): > 10 mg/mL

gentamycin trans-traumatate [Gentamycin Traumatate]
MINIMAL BACTERIAL CONCENTRATION (B.subtilis ATCC 6633): 40.00 | MINIMAL BACTERIAL CONCENTRATION (C.albicans ATCC 10231): > 10,000 | MINIMAL BACTERIAL CONCENTRATION (Ps.aeruginosa ATCC 35422): 1,000.00 | MINIMAL BACTERIAL CONCENTRATION (St.aureus ATCC 65380): 1,000.00 | MINIMAL BACTERIAL CONCENTRATION [8]: 200.00 | MINIMAL BACTERIAL CONCENTRATION (E.coli ATCC 35218): 200.00 | cell growth effect compared to traumatic acid (fibroblast cells L929): higher than traumatic acid effect | promotion of cell growth (proliferation) (fibroblast cells L929; benzethonium > gentamycin salt): capable to promote cell growth (proliferation) according to dose-effect relationship

hexadecyltrimethylammonium trans-traumatate [Hexadecyltrimethyl Ammonium Traumatate]
effect on cells proliferation (3T3 fibroblasts; 0.1 μg/ml, in words): able to affect cells proliferation according to a not statistically significant trend | effect on cellular proliferation (3T3 fibroblasts; 1 μg/ml, in words, ETA salt > ethanolamine salt = traumatic acid): able to increase cellular proliferation | cells numeration (colorimetric, neutral red) (3T3 fibroblasts; 24 hours of incubation, 0.1 (head: μg/ml), control 0.579 ± 0.021): 0.575 ± 0.041 | cells numeration (colorimetric, neutral red) (3T3 fibroblasts; 24 hours of incubation, 1.0 (head: μg/ml), control 0.579 ± 0.021): 0.619 ± 0.033 | cells numeration (colorimetric, neutral red) (3T3 fibroblasts; 24 hours of incubation, 10.0 (head: μg/ml), control 0.579 ± 0.021): 0.491 ± 0.021 | cells numeration (colorimetric, neutral red) (3T3 fibroblasts; 48 hours of incubation, 0.1 (head: μg/ml), control 1.334 ± 0.050): 1.553 ± 0.061 | cells numeration (colorimetric, neutral red) (3T3 fibroblasts; 48 hours of incubation, 1.0 (head: μg/ml), control 1.334 ± 0.050): 1.501 ± 0.081 | cells numeration (colorimetric, neutral red) (3T3 fibroblasts; 48 hours of incubation, 10.0 (head: μg/ml), control 1.334 ± 0.050, ** p < 0.01 significant reduction): 0.842 ± 0.078 | cells numeration (colorimetric, neutral red) (3T3 fibroblasts; 72 hours of incubation, 0.1 (head: μg/ml), control 2.360 ± 0.125): 2.501 ± 0.131 | cells numeration (colorimetric, neutral red) (3T3 fibroblasts; 72 hours of incubation, 1.0 (head: μg/ml), control 2.360 ± 0.125): 2.503 ± 0.100 | cells numeration (colorimetric, neutral red) (3T3 fibroblasts; 72 hours of incubation, 10.0 (head: μg/ml), control 2.360 ± 0.125, ** p < 0.01 significant reduction): 1.385 ± 1.63 | time necessary for the cells to reach the confluence (3T3 fibroblasts; side control experiment, ETA and ethanolamine salts > traumatic acid): reduce the time normally necessary for the cells to reach the confluence | bacterial diffusion halo (E. Coli ATCC.35218; sol. 0.1%): n.h. | bacterial diffusion halo (E. Coli ATCC.35218; sol. 0.5%): 13 | bacterial diffusion halo (E. Coli ATCC.35218; sol. 1%): 15 | bacterial diffusion halo (PS Maltophila ATCC.13637; sol. 0.1%): n.h. | bacterial diffusion halo (PS Maltophila ATCC.13637; sol. 0.5%): 15 | bacterial diffusion halo (PS Maltophila ATCC.13637; sol. 1%): 21 | bacterial diffusion halo ([1]; sol. 0.1%): n.h. | bacterial diffusion halo ([1]; sol. 0.5%): n.h. | bacterial diffusion halo ([1]; sol. 1%): n.h. | bacterial diffusion halo ([2]; sol. 0.1%): 19 | bacterial diffusion halo ([2]; sol. 0.5%): 22 | bacterial diffusion halo ([2]; sol. 1%): 22 | bacterial diffusion halo ([3]; sol. 0.1%): 19 | bacterial diffusion halo ([3]; sol. 0.5%): 24 | bacterial diffusion halo ([3]; sol. 1%): 25 | bacterial diffusion halo (PS Cepacia ATCC.25416; sol. 0.1%): 18 | bacterial diffusion halo (PS Cepacia ATCC.25416; sol. 0.5%): 19 | bacterial diffusion halo (PS Cepacia ATCC.25416; sol. 1%): 22 | bacterial diffusion halo ([4]; sol. 0.1%): 21 | bacterial diffusion halo ([4]; sol. 0.5%): 24 | bacterial diffusion halo ([4]; sol. 1%): 24 | bacterial diffusion halo ([5]; sol. 0.1%): 20 | bacterial diffusion halo ([5]; sol. 0.5%): 22 | bacterial diffusion halo ([5]; sol. 1%): 22 | bacterial diffusion halo ([6]; sol. 0.1%): 20 | bacterial diffusion halo ([6]; sol. 0.5%): 22 | bacterial diffusion halo ([6]; sol. 1%): 22 | antibacterial and bacteriostatic activity profile [7]: antibacterial and bacteriostatic activity profile comparable to that of the comparison products | MINIMAL BACTERIAL CONCENTRATION (B.subtilis ATCC 6633): 2.00 | MINIMAL BACTERIAL CONCENTRATION (C.albicans ATCC 10231): 2.00 | MINIMAL BACTERIAL CONCENTRATION (Ps.aeruginosa ATCC 35422): > 10,000 | MINIMAL BACTERIAL CONCENTRATION (St.aureus ATCC 65380): 1,000.00 | MINIMAL BACTERIAL CONCENTRATION [8]: 8.00 | MINIMAL BACTERIAL CONCENTRATION (E.coli ATCC 35218): 200.00
